Results from PMC7688903 (Frontiers in Microbiology, 2020).
Where a SMILES comes first, the peptide text is derived from it. [ ]: non-standard residue; d: D form. 2Thi = N[C@@H](Cc1cccs1)C(=O)O; Aib = CC(C)(N)C(=O)O

How the values were obtained:
[1] = Circular dichroism spectroscopy, secondary structure; assay type: physicochemical; details: 0.1 mg/mL, 25°C; for [θ]222: average of three scans; for %α-helix: from [θ]222
Description: The secondary structures of Pep05 and its derivatives were investigated using a Chirascan qCD Spectrometer (Applied Photophysics, United Kingdom). The peptides were dissolved to a final concentration of 0.1 mg/mL in four different solvents, namely, 10 mM phosphate buffer (PB; pH 7.4), 50% TFE/PB, 25 mM SDS in PB, and 0.1% LPS in PB ([Kim et al., 2017]). Circular dichroism (CD) spectra were recorded from 260 to 190 nm at 25°C as the average of three scans. Data were collected using a path length of 0.1 cm, scan speed of 50 nm/min, bandwidth of 1.0 nm, response time of 1 s, and resolution of 0.1 nm ([Khara et al., 2016]). Following background subtraction, the observed ellipticity [θ]obs (mdeg) was converted to molar ellipticity [θ] (deg⋅cm^2⋅dmol^–1) using the equation [θ] = [θ]obs(MRW/10cl), where [θ]obs is the observed ellipticity corrected for the blank at a given wavelength (mdeg), MRW is the mean residue molecular weight (molecular weight/number of amino acids), c is the peptide concentration (mg/mL), and l is the path length (cm). Assuming a two-state model, the percentage of α-helix structure was calculated using the following equation: α-helical content = −([θ]222 + 2000)/30000 × 100% ([Jia et al., 2017]).
The influence of the amino acid substitutions on the peptide secondary structure was investigated using CD spectroscopy under different conditions, including 10 mM PB at pH 7.4 (mimicking an aqueous environment), 50% TFE (mimicking a hydrophobic bacterial membrane environment), 25 mM SDS (mimicking a negatively charged bacterial membrane environment), and 0.1% LPS (mimicking a bacterial outer membrane environment).

[2] = Hydrophobicity by RP-HPLC retention time; assay type: physicochemical
Description: Each peptide was dissolved in ddH2O to a concentration of 0.5 mg/mL and then subjected to RP-HPLC on an analytical Waters XBridge C18 column (length: 250 mm, internal diameter: 4.6 mm) using 0.1% TFA in water as solvent A and 0.1% TFA in acetonitrile as solvent B. The peptides were eluted using a linear gradient as follows: 5%B to 45%B over 20 min, 45%B to 60%B over 2 min, and 60%B to 5%B over 1 min. The flow rate was 1 mL/min and the absorbance was measured at 215 nm. The retention time was recorded for each peptide ([Kim et al., 2005]).
Peptide hydrophobicity, net charge, amphipathic nature, and secondary structure are believed to be important for antimicrobial activity ([Lee et al., 2016]; [Li J. et al., 2017]). Among these, hydrophobicity has been recognized as an important factor to promote hydrophobic interaction with the hydrophobic core of the lipid bilayer, leading to membrane disruption, cytoplasm leakage, and eventual cell death ([Schmidtchen et al., 2014]). However, the actual hydrophobicity in liquid environment has been reported to usually show disagreement with the theoretical mean hydrophobicity ([Kim et al., 2005]). […] More hydrophobic compounds are typically eluted later from the column. […]

SMILES: CC(C)C[C@H](NC(=O)[C@H](Cc1ccc(O)cc1)NC(=O)[C@H](CCCCN)NC(=O)[C@H](CC(C)C)NC(=O)[C@H](CC(C)C)NC(=O)[C@H](CCCCN)NC(=O)[C@H](CCCCN)NC(=O)[C@H](Cc1ccccc1)NC(=O)[C@H](CC(C)C)NC(=O)[C@H](CCCNC(=N)N)NC(=O)C(C)(C)N)C(=O)N[C@@H](CCCNC(=N)N)C(=O)N[C@@H](CCCCN)C(=O)N[C@@H](Cc1cccs1)C(N)=O [UP09] (H-[Aib]RLFKKLLKYLRK[2Thi]-NH2; N-terminus assumed)
- [θ]222 ([1]; 10 mM PB buffer pH 7.4): –1842.7 deg⋅cm^2⋅dmol^–1
- %α-helix ([1]; 10 mM PB buffer pH 7.4, rc = random coil): rc
- [θ]222 ([1]; 25 mM SDS in PB): –4643.3 deg⋅cm^2⋅dmol^–1
- %α-helix ([1]; 25 mM SDS in PB, rc = random coil): 8.8%
- [θ]222 ([1]; 0.1% LPS in PB): –11064.1 deg⋅cm^2⋅dmol^–1
- %α-helix ([1]; 0.1% LPS in PB): 30.2%
- [θ]222 ([1]; 50% TFE/PB): –11436.9 deg⋅cm^2⋅dmol^–1
- %α-helix ([1]; 50% TFE/PB, rc = random coil): 31.5%
- relative retention time (RRT) with respect to Pep05 ([2]; RP-HPLC retention time of peptide / that of Pep05, C18, acetonitrile/water/TFA): 1.08
- RT (RP-HPLC retention time, measure of hydrophobicity) ([2]; chromatographic, Waters XBridge C18 250 x 4.6 mm, 0.5 mg/mL in ddH2O, A 0.1% TFA/water, B 0.1% TFA/acetonitrile, 5-45%B over 20 min, 1 mL/min, UV 215 nm): 16.606 min
